According to patent publication US4483867A, “Antifibrinolytically active derivatives of tranexamic acid” (KabiVitrum AB, priority 1981, dated 1984):
Structures can show the parent of a compound that is named as a salt.

Columns and labels:
[1] = In vitro test - hydrolysis in human plasma (half life); assay type: in vitro ADME; settings: 37° C., 2.3·10^-3 M, trans form, hydrochloride salt, HPLC, UV 210 nm
Text: (§1) In the biological tests described in sections A, B and C below, the test compounds were used in trans form and in the form of hydrochloride salt. The test results given in Tables 1 and 2 are average values.
(§2) The compounds of the present invention, which are esters of tranexamic acid, are converted to tranexamic acid in vivo either during the absorption through the gastro-intestinal wall or by enzymes present in the blood. In order to test the stability of compounds of the invention the half life in human plasma of a number of compounds of the invention was compared to the half life of the same ester in a phosphate buffer of the same pH. The half life, that is, the time within which the amount of unhydrolysed test compound is reduced by 50%, was calculated from the decrease of intact test compound with time. This decrease of intact test compound was monitored by UV-detection at 210 nm using high performance liquid chromatography (HPLC) in the reversed phase mode with mixtures of methanol and phosphate buffer as eluents. The stability in plasma was studied by addition of […] of plasma thermostated to 37° C. The concentration of the test compound in plasma amounted to 2.3·10^-3 M. The plasma samples were injected directly into the column after filtration. The half life in buffer solution were determined in the same way except that no filtration was needed.

[2] = test system: fibrinolytic activity induced by porcine tissue activator; assay: Antifibrinolytic activity in chandler loop (inhibition of clot lysis induced by porcine tissue activator); assay type: biochemical, human blood; porcine tissue activator; settings: for Percent inhibition of fibrinolytic activity induced by porcine tissue activator: 1 micromole/liter, human blood, 20 PU/ml porcine tissue activator, six hours, mean
Protocol: as §1
The antifibrinolytic properties of tranexamic acid and a number of compounds of the invention were tested in an artificial circulating blood system, the chandler loop (Chandler, A. B., In vitro thrombolytic coagulation of blood. A method for producing a thrombus. Lab.Invest. 7, 110, 1958.) Human blood was mixed with ^125 I-labelled fibrinogen, divided into 1.5 ml portions and filled into plastic tubings. After recalcification the loops were rotated for 24 hours during which ^125 I-labelled clots were formed. Fibrinolysis as measured with release of ^125 I-labelled fibrin degradation products from the clot, was initiated by adding 20 PU/ml of porcine tissue activator to the loops. Clot lysis was followed during six hours and the cumulative release of ^125 I FDP was plotted v.s. time of lysis. […] The effect on the clot lysis of compounds of the invention was tested in this system and compared to the inhibitory effect of tranexamic acid. No significant difference (p>0.05) between the antifibrinolytic effect of tranexamic acid and the tested compounds of the invention was found in this test system.

[3] = In vitro test - hydrolysis in phosphate buffer pH 7.5 (half life); assay type: physicochemical; settings: trans form, hydrochloride salt, HPLC, UV 210 nm
Text: as §1, §2

[4] = In vivo test - absorption in rats after oral administration (tranexamic acid recovered in urine); settings: for Absorption after oral administration, in words: compared to tranexamic acid
Protocol: as §1
Rats were chosen to study the absorption after oral administration of compounds of the invention which are esters of tranexamic acid. Absorption of tranexamic acid itself is very poor in rats.
The determination of absorption in the rats was performed in the following way: Male rats in groups of three or four were given the test compound by gavage (1 mmol/kg-0.1 mmol/kg, 2 ml/kg). The urine was collected at the intervals 0-6, 6-24, 24-48 and 48-72 hours. At the end of each interval the cages were rinsed with 20 ml of distilled water, which also was collected and analysed. The urine sampls were then analysed for their content of tranexamic acid by a gaschromatographic method according to Wessman J., Stromberg S., Anal. Chem. 49 (1977) 369. The results are shown in table 1, where the total absorption is given as the molar amount of tranexamic acid which was recovered in the urine samples compared to the amount of administered test compound, also calculated as tranexamic acid.

[5] = large oral intake, about 3 to about 6 grams per 24 hours; cited from earlier work
[6] = normally, clinical use; cited from earlier work

Structure (SMILES) | half-life at 2300 µM [1] | half-life at 2300 µM [3] | Percent inhibition of fibrinolytic activity induced by porcine tissue activator [2] | further results
CC(C)(C)C(=O)OCOC(=O)[C@H]1CC[C@H](CN)CC1 [Example 1, pivaloyloxymethyl trans-4-aminomethylcyclohexanecarboxylate hydrochloride] | 5 min | – | 19.3 ± 4.3% | –
CCOC(=O)OC(C)OC(=O)[C@H]1CC[C@H](CN)CC1 (stereo partly drawn) [Example 3, 1-(ethyloxycarbonyloxy)ethyl trans-4-aminomethylcyclohexanecarboxylate hydrochloride] | 1.5 min | 90 h | 23.4 ± 5.1% | –
CC(C)OC(=O)OC(C)OC(=O)[C@H]1CC[C@H](CN)CC1 (stereo partly drawn) [Example 4, 1-(isopropyloxycarbonyloxy)ethyl trans-4-aminomethylcyclohexanecarboxylate hydrochloride] | – | – | 25.8 ± 5.5% | Absorption after oral administration, in words [4]: absorbed to a very high degree
CC(=O)OC(C)OC(=O)[C@H]1CC[C@H](CN)CC1 (stereo partly drawn) [Example 5, 1-(acetyloxy) ethyl trans-4-aminomethylcyclohexanecarboxylate] | 9 min | – | 19.5 ± 4.7% | –
CC(OC(=O)C(C)C)OC(=O)[C@H]1CC[C@H](CN)CC1 (stereo partly drawn) [Example 7, 1-(isobutyryloxy)ethyl trans-4-aminomethylcyclohexanecarboxylate] | – | – | 23.8 ± 5.7% | –
CN(C)C(=O)C(OC(=O)[C@H]1CC[C@H](CN)CC1)OC(=O)[C@H]1CC[C@H](CN)CC1 [Example 16, 2,2-dihydroxy-N,N-dimethylacetamide bis-(trans-4-aminomethylcyclohexanecarboxylate)] | – | – | 32.2 ± 4.7% | –
NC[C@H]1CC[C@H](C(=O)O)CC1 [Tranexamic acid, trans-4-aminomethylcyclohexanecarboxylic acid] | – | – | 25.6 ± 3.9% | Absorption after oral administration, in words [4]: very poor; dose excreted at 72 h ([4]; rat, po, male rats, by gavage, 1 mmol/kg-0.1 mmol/kg, 2 ml/kg, tranexamic acid recovered in urine 0-72 hours vs. amount administered, trans form, hydrochloride salt, read-out: Absorption Mole % (average values of four tests)): 11 ± 1.4%; Undesired side effects, in words [5]: causes in some patients undesired side effects in the gastro-intestinal tract; Absorption of administered tranexamic acid, oral route [6]: 35-40%; Antifibrinolytic effect / inhibition of clot lysis, in words ([2]; chandler loop): clot lysis was inhibited in a dose dependent manner

The next lines start with results.

half-life at 2300 µM [1] | half-life at 2300 µM [3] | Structure (SMILES) | Percent inhibition of fibrinolytic activity induced by porcine tissue activator [2] | further results
0.5 min | – | CC(C)C(=O)OCOC(=O)[C@H]1CC[C@H](CN)CC1 [Example 6, isobutyryloxymethyl trans-4-aminomethylcyclohexanecarboxylate] | 32.4 ± 5.3% | –
1.5 min | 26 h | NC[C@H]1CC[C@H](C(=O)OCOC(=O)[C@H]2CC[C@H](CN)CC2)CC1 [Example 11, methandiol bis-(trans-4-aminomethylcyclohexanecarboxylate) dihydrochloride] | – | –
11 min | 70 h | CC(OC(=O)[C@H]1CC[C@H](CN)CC1)OC(=O)[C@H]1CC[C@H](CN)CC1 [Example 13, 1,1-Ethandiol bis-(trans-4-aminomethylcyclohexanecarboxylate) dihydrochloride] | – | –
